# Where a SMILES comes first, the peptide text is derived from it. [ ]: non-standard residue; d: D form. Nle = CCCC[C@H](N)C(=O)O
# B1: PS76-OVA: PS76p conjugated to ovalbumin via GMBS (conjugate)
# peptide: YRQFVTGFWGPPC
# chain: GSIGAASMEFCFDVFKELKVHHANENIFYCPIAIMSALAMVYLGAKDSTRTQINKVVRFDKLPGFGDSIEAQCGTSVNVHSSLRDILNQITKPNDVYSFSLASRLYAEERYPILPEYLQCVKELYRGGLEPINFQTAADQARELINSWVESQTNGIIRNVLQPSSVDSQTAMVLVNAIVFKGLWEKAFKDEDTQAMPFRVTEQESKPVQMMYQIGLFRVASMASEKMKILELPFASGTMSMLVLLPDEVSGLEQLESIINFEKLTEWTSSNVMEERKIKVYLPRMKMEEKYNLTSVLMAMGITDVFSSSANLSGISSAESLKISQAVHAAHAEINEAGREVVGSAEAGVDAASVSEEFRADHPFLFCIKHIATNAVLFFGRCVSP
# Experiments:
# g3p in COS-1 cells = assay: g3p expression in transfected COS-1 cells by IFA; assay type: cell-based; conditions: COS-1 cells treated with protease inhibitor
# Procedure: To achieve greater levels of expression, the plasmids were transfected into COS-1 cells, which are capable of replicating the plasmids and generating exceptional amounts of the encoded proteins. […] Several different transfection methods and variations were tested to increase the proportion of cells that would express detectable g3p. […] Therefore, g3p is likely being broken down rapidly by the mammalian cells.
# This possibility was further tested by treating the COS-1 cells with a protease inhibitor (ALLN) that can inhibit proteases in the endoplasmic reticulum of living cells. […] The antigen was detected in the Golgi apparatus as well as in the endoplasmic reticulum. Less of the truncated version of g3p (without a membrane anchor) was detectable; whether any of it is secreted from the expressing cells under these conditions remains to be determined.
# [1] = test system: binding of C. albicans hydrophilic yeast cells to splenic marginal zone macrophages; assay: Ex vivo adherence assay on mouse splenic tissue; conditions: purified epitope of mAb 10G
# Text: Tissue adherence characteristics of C. albicans and adhesin isolation. By use of an ex vivo adherence assay, the adherence characteristics of hydrophilic and hydrophobic yeast cells to mouse splenic and lymph node tissue was examined (Cutler, J. E., et al., 1990, Characteristics of Candida albicans adherence to mouse tissues. Infec. Immun. 58:1902-1908); Han, Y., et al. 1993. Binding of C. albicans yeast cells to mouse popliteal lymph node tissue is mediated by macrophages. Infect. Immun. 61:3244-3249; and Hazen, K. C., et al. 1991. Differential adherence between hydrophobic and hydrophilic yeast cells of C. albicans. Infect. Immun. 59:907-91212).
# C. neoformans strain 602 log and stationary phase cells were removed form the various growth conditions and tested for adherence to splenic tissue in the ex vivo assay. […]
# However, 2ME extract will not inhibit yeast adherence if the extract is treated with antiserum from vaccinated animals. […] 100 μl of each was overlaid onto splenic cryosections for 15 min at 4° C., the mixtures were decanted, 100 μl of a suspension of yeast cells (1.5×10^7/0.1 ml DMEM) was added to each tissue section for 15 min at 4° C., and yeast cell binding was quantified as previously described (Riesselman, M. H. et al. 1991. Improvements and important considerations of an ex vivo assay to study interactions of C. albicans with splenic tissue., J. Immunol. Methods 1450:153-160). […]
# [2] = biological target: Monoclonal Antibody B6.1 (930610), ATCC Accession No. HB11925
# C. albicans 2ME extract = assay: Antibody response of mice immunized with peptide mimotope preparations; assay type: in vivo, BALB/c mice; conditions: for Class of the antibody response against 2ME extract: γ-chain or μ-chain specific secondary antibodies
# Procedure: Administration of peptide intraperitoneally (i.p.) BALB/c mice (4 animals) were immunized i.p. with PS76p (1 mg per dose) mixed into sterile PBS (degassed and nitrogen sparged) with and without RS-700MPL+TDM Ribi Adjuvant (Ribi Immunochem, Hamilton, Mont.). The insolubility of PS76p in PBS, as noted above, produced a particulate inoculum which was sonicated briefly (10 sec, ice cold) to minimize particulate size prior to injection. Animals were boosted with 1 mg PS76p at day 21 and serum samples were obtained on day 28. Sera from all four mice agglutinated hydrophilic C. albicans cells and agglutinated 2-ME extract-latex beads. The anti-Candida response appeared somewhat stronger in the animals receiving peptide with adjuvant.
# Reactivity of the anti-PS76p sera from the mice was also tested in dot blot assays against 2-ME extract (1 μg/dot). Immune sera were diluted 1:10 in 5% BLOTTO-phage buffer, incubated 12-16 h with preblocked dot blots, washed and incubated with peroxidase-conjugated goat anti-mouse Ig (G,M, and A). […] Additional dot blots were incubated in primary antibodies as above and reacted with either γ-chain specific or μ-chain specific secondary antibodies.
# Animals were administered booster immunizations of PS76p every two weeks and serum samples obtained 1 week after each. An ELISA assay was utilized to determine any change in titer for the anti-PS76p antiserum samples. Briefly, 2ME extract-coated wells or wells coated with an irrelevant carbohydrate were blocked in 5% BLOTTO/phage buffer and incubated with dilutions of either pre-immune sera or various anti-PS76p antiserum samples. Subsequent steps with the secondary antibody and substrate solution were as described above for ELISA. All of the anti-PS76p serum samples reacted with 2ME extract and recognized the peptide-carrier protein conjugates, but not the irrelevant carbohydrate or the carrier proteins alone. […] Other BALB/C mice (2 animals) were immunized with PS76p plus Ribi adjuvant (1 mg/dose subcutaneous inoculation (s.c.), and reached higher anti-PS76 antibody titers (e.g. 160 by ELISA) after the second boost. ELISA tests performed with class-specific secondary antibody reagents confirm that the response is primarily IgM. […]
# MAb B6.1 [3] = assay: Dot blot inhibition of MAb B6.1 by synthetic peptide at pH 8.6; assay type: binding, mouse; conditions: up to 200 μM peptide
# Text: Because pH below 5 or above 8.5 is required to solubilize PS76p, the reactivity of MAb B6.1 at low and high pH was investigated. […] Although MAb B6.1 is functional at these pH conditions, the PS76p may or may not retain proper epitope conformation at this pH and may require tethering to a carrier molecule to enable inhibition studies to be done at pH 7.
# Solubility tests = assay type: physicochemical
# Text: Synthetic peptide inhibits binding of MAb B6.1 to its' carbohydrate epitope. […] We obtained a synthetic 13-mer peptide (Bio-Synthesis, Lewisville, Tex.), YRQFVTGFWGPPC, (SEQ ID NO:7) which was designed to include the PS76 nonapeptide sequence (designated as PS76p) plus the 3 amino acid pIII tether (GPP) and an added cysteine (C) to facilitate peptide coupling to a carrier protein, such as keyhole limpet hemocyanin (KLH). Due to the high number of hydrophobic amino acids in the synthesized PS76p, solubility tests were run to determine conditions for dot blot inhibition studies. The PS76p was soluble in trifluoroacetic acid, dimethylsulfoxide, 20% v/v acetic acid, citrate and acetate buffers below pH 5.4, borate buffer above pH 8.5, but not soluble in deionized water, phosphate buffered saline (PBS), 15% v/v dimethylformamide, chloroform, or methanol.
# MAb S10 = assay: ELISA: peptide-carrier conjugates with irrelevant IgM MAb S10; assay type: binding; conditions: physiologic pH
# Procedure: (§1) Samples of the final conjugates, PS76p-MBS-KLH (i.e. PS76-KLH) and PS76p-GMBS-OVA (i.e. PS76-OVA) were tested by enzyme linked immunosorbent assay (ELISA) for reactivity with MAb B6.1 at physiologic pH. Microtiter plate wells were coated with the peptide conjugates or the carrier proteins alone, washed (Tris buffered saline with 0.1% Tween-20), and blocked in 5% BLOTTO/phage buffer. Wells were washed and incubated with MAb B6.1, an irrelevant IgM (MAb S10) or block only, washed, and a horseradish peroxidase-conjugated goat anti-mouse Ig (G and M) was added. Wells were washed and an o-phenylenediamine substrate solution was added, incubated 10 min and color development stopped with 10% sulfuric acid, and the plate read at OD=490 nm. […] The PS76-KLH conjugate was utilized in an ELISA-based inhibition assay as follows. Microtiter plate wells were coated with PS76-KLH and blocked as above. MAb B6.1 ([…] in block) was pre-incubated with or without either 50 or 500 μg of acid-hydrolyzed 2ME extract per ml of solution, and then added to the conjugate coated well.
# MAb B6.1 [4] = assay: ELISA: peptide-carrier conjugates with MAb B6.1 at physiologic pH; assay type: binding, mouse; conditions: OD 490 nm
# Procedure: as §1
molecule,measurement,setting,value
CCCC[C@@H](C=O)NC(=O)[C@H](CC(C)C)NC(=O)[C@H](CC(C)C)NC(C)=O [ALLN] (Ac-Leu-Leu-[Nle]-aldehyde),Frequency and amount of g3p detectable by IFA,g3p in COS-1 cells,significant increase
"OC[C@H]1O[C@@H](O[C@@H]2[C@H](O[C@@H]3[C@H](O[C@@H]4C(O)O[C@H](CO)[C@@H](O)[C@@H]4O)O[C@H](CO)[C@@H](O)[C@@H]3O)O[C@H](CO)[C@@H](O)[C@@H]2O)[C@@H](O)[C@@H](O)[C@@H]1O (stereo partly drawn) [tetramannose, β-1,2-linked straight-chained tetramannose]",Binding of yeast cells to the splenic marginal zone,[1],blocks binding
"M13KBst, the parent vector (parent phage) for the PDPL (from UniProt P69168 19-424)",absorbance (OD490),[2],0.021 OD490
same,absorbance (OD490),irrelevant IgM MAb S10,0.032 OD490
"YRQFVTGFWGPPC [PS76p, synthetic 13-mer: PS76 nonapeptide plus GPP tether and added cysteine]",ELISA titer against 2ME extract,"C. albicans 2ME extract; 1 mg i.p. immunizations, boosters every two weeks",~40
same,Agglutination of hydrophilic C. albicans cells and 2-ME extract-latex beads by sera of immunized mice,"C. albicans 2ME extract; 1 mg per dose i.p. with and without Ribi adjuvant, boost day 21, serum day 28, all four mice",agglutinated
same,ELISA anti-PS76 antibody titer,"C. albicans 2ME extract; 1 mg/dose s.c. plus Ribi adjuvant, after the second boost",160
same,Dot blot reactivity of immune sera to 2-ME extract,"C. albicans 2ME extract; sera 1:10, 1 μg/dot, all four immunized mice",showed reactivity
same,Class of the antibody response against 2ME extract,C. albicans 2ME extract,primarily IgM
same,Inhibition of MAb B6.1 binding to 2-ME extract,MAb B6.1 [3],negative
same,Solubility,"Solubility tests; deionized water, PBS, 15% v/v dimethylformamide, chloroform, methanol",not soluble
same,Solubility,"Solubility tests; trifluoroacetic acid, dimethylsulfoxide, 20% v/v acetic acid, citrate and acetate buffers below pH 5.4, borate buffer above pH 8.5",soluble
B1,Reactivity with MAb S10 by ELISA,MAb S10,not substantially
same,ELISA titer against 2ME extract,C. albicans 2ME extract; conjugate s.c.,320
same,Class of the antibody response against 2ME extract,C. albicans 2ME extract,primarily IgM
same,Reactivity with MAb B6.1 by ELISA,MAb B6.1 [4],reacted

# Reference: patent US6403090B1, “Peptides which mimic candida carbohydrate epitopes and their use in a vaccine” (The Research and Development Institute Inc., priority 1994, dated 2002)
